Laboratory results as given in PubChem BioAssay (NCI).
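Where inhibition never reached the appropriate level, the endpoint shown equals the highest concentration tested. Otherwise, values were interpolated linearly from a five-concentration, 48-hour dose response in 96-well plates. The concentration for 50% growth inhibition is given as GI50. TGI is the concentration that stops growth completely.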

Experiments:
Experiment in all cases: NCI-60 cell line screen, 48 h
[1] = tested on: 786-0 renal
[2] = tested on: DU-145 prostate
[3] = tested on: HOP-62 NSCLC
[4] = tested on: HS 578T breast
[5] = tested on: NCI-H226 lung
[6] = tested on: OVCAR-4 ovarian
[7] = tested on: OVCAR-8 ovarian
[8] = tested on: SF-268 CNS

Compound	GI50 [1] [µM]	TGI [1] [µM]	GI50 [2] [µM]	TGI [2] [µM]	GI50 [3] [µM]	TGI [3] [µM]	GI50 [4] [µM]	TGI [4] [µM]	TGI [5] [µM]	GI50 [6] [µM]	TGI [6] [µM]	GI50 [7] [µM]	TGI [7] [µM]	TGI [8] [µM]	GI50 [8] [µM]	GI50 [5] [µM]
CC[C@H](CO)Nc1nc(NCc2ccccc2)c2ncn(C(C)C)c2n1	31.9	> 100	19.9	> 100	29.4	> 94	20.8	68.2	> 93.7	26.8	> 88.5	29.3	> 100	> 75.1	–	–
CN(C)C(=O)c1cnc2oc3ccc(O)cc3c2c1-c1ccccc1	> 25	> 25	> 25	> 25	> 25	> 25	–	–	–	–	–	> 25	> 25	> 25	20.2	–
COc1ccc(CC(=O)c2ccc(O)cc2O)cc1	> 100	> 100	> 100	> 100	> 100	> 100	> 100	> 100	> 100	> 100	> 100	> 100	> 100	> 100	94.5	> 100
C=C1c2ccoc2C[C@H]2[C@H]1CC[C@@]1(O)[C@@](C)(C(=O)OC)CCC[C@]21C	40.1	> 100	38.4	> 100	40.7	> 100	71.9	> 100	56.2	86.5	> 100	> 100	> 100	73.5	22.7	18.1
COc1cc([N+](=O)[O-])c(OC)cc1-c1nc2sccn2c1/C=N/N=C(N)N	18	49.6	30.4	> 100	13.6	46.9	19	43.9	–	52.2	> 100	17.3	59.8	35.3	4.86	–
COC(=N)c1c(N)[n+]([O-])c2ccc(F)cc2[n+]1[O-]	> 100	> 100	> 100	> 100	> 100	> 100	> 100	> 100	> 100	> 100	> 100	> 100	> 100	> 100	> 100	> 100
Nc1ccccc1C#C/C=C\C#Cc1cccc(O)c1	3.89	15.3	16.8	> 57.7	2.63	12.1	3.39	22.8	20.9	6.68	> 84.8	0.663	13.9	44.5	7.93	6.03
COc1cnc2c(c1)C(=O)c1c-2n(CCCNC2=NCCS2)c(=O)c2cc(Cl)ccc12	0.239	1.72	0.0929	1.83	0.0425	1.51	–	–	2.29	1.42	2.95	–	–	2.06	0.088	0.687
N#Cc1nc2c(S(=O)(=O)c3ccc(Cl)cc3)c(N)n(CCCN3CCOCC3)c2nc1C#N	17.3	52.8	3.79	19.1	15.2	51.3	1.76	5.06	13.5	4.78	> 100	4.07	> 100	35.4	5.19	2.87
COc1cc(/C=C/C(=O)c2ccc(F)cc2)ccc1OCCCN1CCN(CC(=O)Nc2ccc(Cl)cc2C(=O)c2ccccc2Cl)CC1	3.86	15.2	29.8	> 100	15.5	31.9	7.01	46.3	37.2	9.48	34.5	11.7	68.1	> 100	16.9	18.4
Oc1c(Cl)c(Cl)c(O)c2c1CCCC2	–	3.94	–	–	–	51.6	–	49.2	–	–	–	–	46	24.8	–	–
O=C1c2ccc3c4c(ccc(c24)C(=O)N1CCCNCc1ccccc1Cl)C(=O)N(CCCNCc1ccccc1Cl)C3=O	0.61	1.43	0.261	0.86	0.277	1.02	0.984	11.9	1.49	0.0891	0.182	0.148	0.533	1.49	0.477	0.659
Cc1cnc(CNC(=O)c2c(=O)c3ccc(N4CCCN(C)CC4)nc3n3c2sc2ccccc23)cn1	6.17	22.7	1.03	6.29	7.16	25.4	16.6	47.4	30.8	1.4	10.3	1.09	21.2	25.6	1.55	7.44
O=[N+]([O-])c1ccc(N=Nc2ccc(O)c3ccccc23)cc1	8.59	> 100	6.66	> 100	20.3	> 100	2.42	29.9	> 100	2.83	> 100	3.1	> 100	> 100	2.9	26.3
O=[N+]([O-])c1ccc(N2CCC(CCCC3CCN(c4ccc([N+](=O)[O-])cc4[N+](=O)[O-])CC3)CC2)c([N+](=O)[O-])c1	–	28.7	–	61.3	–	29.5	–	> 100	56.6	–	33.4	–	33.3	42.6	–	–
COc1ccc(/C=C(\C(=O)NCc2cccnc2)S(=O)(=O)c2ccccc2)cc1OC	2.86	8.92	3.06	12.4	3.51	11.4	3.41	26.3	10.7	–	–	3.84	25.1	15.9	3.32	3.13

Compound	GI50 [1] [µM]	TGI [1] [µM]	GI50 [2] [µM]	TGI [2] [µM]	GI50 [3] [µM]	TGI [3] [µM]	GI50 [4] [µM]	TGI [4] [µM]	TGI [5] [µM]	GI50 [6] [µM]	TGI [6] [µM]	GI50 [7] [µM]	TGI [7] [µM]	TGI [8] [µM]	GI50 [8] [µM]	GI50 [5] [µM]
O=S(=O)(c1cccc2c(I)cccc12)N1CCCNCC1	16.9	32.8	15.8	36.3	16.5	34.4	15.4	39.5	34.8	18.6	38.4	24.4	51.9	> 100	26.6	17.8
C[C@]12CC[C@@H]3c4ccc(O)cc4CC[C@H]3[C@@H]1Cc1cnc(N)nc12	23.3	59.3	17.8	47.3	25.5	59.1	18.4	40.7	33.8	32.2	> 100	92.9	> 100	38.8	13.5	15.2
CC(C)(C)c1[nH]nc2c1C(c1cc3ccccc3[nH]c1=O)Nc1cc(C(=O)OCc3ccccc3)ccc1N2 (centres undefined)	3.41	> 100	6.04	> 100	6.37	> 100	7.45	> 100	> 100	4.12	> 100	5.5	> 100	> 100	4.82	3.2
CCC[CH2][Sn]1([CH2]CCC)[O]C2C(CO)OC(n3ccc(N)nc3=O)C2[O]1 (centres undefined)	1.54	2.88	1.34	2.61	2.24	3.99	1.29	4.14	4.25	1.33	2.68	1.66	3.11	2.47	1.08	2.02
Cc1cn2c(/C=C3/C(=O)Nc4ccc(O)cc43)c(C)nc2s1	4.95	> 100	6.43	> 100	2.89	> 68	2.68	18.2	39.8	> 51.4	> 100	10.4	> 51.7	56.8	3.42	4.91
CN(C)CC1CCC2=C(C1=O)C(c1ccc(Cl)c(Cl)c1)C1=C(CCC(CN(C)C)C1=O)O2 (centres undefined)	1.58	2.98	2.91	9.09	12.5	25.2	15.6	36.2	31.2	15.4	29.9	4.25	16	29.5	15.6	15.3
O=[N+]([O-])c1cc(Cl)cnc1Br	–	20.2	–	> 100	–	35.1	–	59.9	6.62	–	3.82	–	5.02	5.81	–	–
COc1ccc(C(=O)/C=C/c2cccc(Nc3ccnc4cc(Cl)ccc34)c2)cc1	1.48	4.27	2.45	> 100	1.44	3.99	3.18	> 100	> 100	–	–	–	–	–	–	1.78
CC1=C(C(=O)N(C)c2ccc(Cl)c(C(=O)OC(C)C)c2)SCCO1	–	> 100	–	> 100	–	–	–	> 100	> 100	–	> 100	–	> 100	> 100	–	–
Cn1cc(-c2csc(-c3cn(CCCN4CCCCC4)c4ccccc34)n2)c2cccnc21	1.53	2.93	1.75	3.17	–	–	2.55	6.26	7.62	2.02	4.07	–	–	3.41	1.72	2.55
Cc1[nH]c2ccc(F)cc2c1-c1nc2c3cccnc3c3ncccc3c2[nH]1	0.327	> 100	0.308	> 100	0.305	> 100	–	–	> 100	0.0966	> 100	0.345	> 100	> 100	0.205	0.351
CC(=O)[O][Sn]([CH2]c1ccccc1)([CH2]c1ccccc1)[CH2]c1ccccc1	> 7.05	> 10	> 10	> 10	> 5.55	> 6.75	> 6.39	> 9.44	> 10	> 4.36	> 6.02	> 10	> 10	–	–	> 10
Cc1ccc(-c2nc3nc(-c4ccccc4)nc(N4CCNCC4)c3o2)cc1	0.585	1.27	0.508	1.73	1.48	2.98	–	–	3.79	0.435	1.6	0.366	1.19	4.02	1.75	1.79
C=C1CC[C@@H]2[C@](C)(COC(C)=O)[C@H](OC(C)=O)CC[C@@]2(C)[C@@H]1CC(Nc1ccc(S(=O)(=O)Nc2ccc(Cl)nn2)cc1)C1=CCOC1=O (some centres undefined)	1.69	3.14	1.7	3.45	1.46	2.99	6.17	> 100	–	1.47	3.17	–	–	3.67	1.8	–
CCOC(=O)C1CCCCN1C(=O)c1ccc(Nc2cnc3cc(C(F)(F)F)ccc3n2)cc1 (centres undefined)	4.82	16.4	20.5	92.2	17.6	32.5	3.18	14.7	45.6	–	–	33.2	> 100	32.7	13.2	24.5
[O-]c1ccccc1/C=N/C(/N=C/c1ccccc1[O-])c1ccccc1O.[O-]c1ccccc1/C=N/C(/N=C/c1ccccc1[O-])c1ccccc1O.[Zr+4]	41.6	> 100	–	–	34.2	> 100	12.5	60	–	26.1	> 100	26.7	> 100	> 100	28	–
